Laboratory results taken from patent publication US20100009956A1, “NOVEL SUBSTITUTED PYRIMIDINES AS CYSTEINE PROTEASE INHIBITORS” (Glaxo Group Limited , a corporation, priority 2006, published 2010).
Counter-ions that a name gives are not always drawn. Like-named read-outs stand apart in the source and are kept apart here.

Tests used:
Assay type in all cases: biochemical
[1] = target: Falcipain-3 (Plasmodium falciparum, UniProt Q8IIL0); experiment: Falcipain-3 enzymatic assay (assay 1)
Method: (§1) Assay 1) Determination of Falcipain-2, Falcipain-3, Vivapain-2, Cathepsin K Cathepsin S, Cathepsin L, and Cathepsin B Proteolytic Catalytic Activity
(§2) Assays for Falcipain-2, Falcipain-3, and Vivapain-2 are carried out with parasitic recombinant enzymes. Cathepsins K, S, L, and B are carried out with human recombinant enzymes. Standard assay conditions for the determination of kinetic constants used a fluorogenic peptide substrate, typically H-D-VLR-AFC (Falcipain-2, Falcipain-3, Vivapain-2), Z-FR-AFC (Cathepsin K, L, B), or KQKLR-AMC (Cathepsin S) and are determined in 100 mM sodium acetate, pH 5.5, containing 10 mM DTT and 0.5 mM CHAPS (Falcipain-2, Falcipain-3, Vivapain-2), and 100 mM sodium acetate, pH 5.5, containing 5 mM L-cysteine, 1 mM CHAPS and 5 mM EDTA (Cathepsin K, L, B), or 50 mM MES, pH 6.5, containing 0.5 mM CHAPS, 10 mM L-CYS, 5 mM EDTA (Cathepsin S). Stock substrate solutions are prepared at 20 mM in DMSO. The activity assays contained 30 uM substrate (Falcipain-2, Falcipain-3, Vivapain-2), 20 uM substrate (Cathepsin K), 25 uM substrate (Cathepsin B), 5 uM substrate (Cathepsin L), and 30 uM substrate (Cathepsin S). All assays contained 1% DMSO. […] All assays are conducted at ambient temperature as end point assays being quenched after 60 minutes with the exception of Cathepsin S at 90 minutes, with 16.6 uM E-64 in 1% DMSO. Product formation (AFC or AMC) is determined from fluorescence (excitation at 405 nm; emission at 530 nm, AFC, or excitation at 360 nm; emission at 460 nm, AMC) monitored with a LJL Aquest (Molecular Devices) fluorescent plate reader. In the case of kinetic reads (used in mechanism of action studies), the reaction is not quenched but is read in the plate reader every 3 minutes for approximately 90 minutes. In addition, the mechanism of action studies for Falcipain-2 utilize Z-LR-AMC as the substrate. Product formation is determined from the fluorescence of AMC, measured with a LJL Acquest (Molecular Devices) fluorescent plate reader (excitation at 360 nm; emission at 460 nm).
(§3) Potential inhibitors are evaluated using the quenched read (endpoint) method. Assays are carried out in the presence of variable concentrations of test compound. Reactions are initiated by addition of enzyme and substrate to wells containing inhibitor stamped in 100% DMSO. For endpoint assays, the reaction is quenched with the addition of E64. Dose response data is fit to an IC50 curve with preset fitting tools according to equation 1:
(§4) y=a+(b−a)/(1+(10^x/10^c)^d) (1)
(§5) where y is the response at a particular inhibitor concentration x, a is the minimum response value, b is the maximum response value, c is the IC50, and d is the slope of the IC50 curve. Assuming the compound is a competitive inhibitor, the apparent KI can be calculated from IC50, as shown in equation 2: […]

[2] = target: Falcipain-2 (Plasmodium falciparum, UniProt Q8I6U4); experiment: Falcipain-2 enzymatic assay (assay 1)
Method: as §1, §2, §3, §4, §5

[3] = target: T1, Cathepsin K (Homo sapiens, UniProt P43235); experiment: Cathepsin K enzymatic assay (assay 1); settings: human recombinant enzyme, Z-FR-AFC substrate, pH 5.5
T1 sequence (P43235 115-329): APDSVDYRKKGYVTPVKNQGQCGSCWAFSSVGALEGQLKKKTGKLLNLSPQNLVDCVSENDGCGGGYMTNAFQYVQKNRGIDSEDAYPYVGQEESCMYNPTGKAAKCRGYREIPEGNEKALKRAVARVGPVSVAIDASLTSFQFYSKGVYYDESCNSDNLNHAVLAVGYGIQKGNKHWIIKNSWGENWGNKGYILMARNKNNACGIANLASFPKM
Method: as §1, §2, §3, §4, §5

Sequence of Falcipain-2 (Q8I6U4 244-484): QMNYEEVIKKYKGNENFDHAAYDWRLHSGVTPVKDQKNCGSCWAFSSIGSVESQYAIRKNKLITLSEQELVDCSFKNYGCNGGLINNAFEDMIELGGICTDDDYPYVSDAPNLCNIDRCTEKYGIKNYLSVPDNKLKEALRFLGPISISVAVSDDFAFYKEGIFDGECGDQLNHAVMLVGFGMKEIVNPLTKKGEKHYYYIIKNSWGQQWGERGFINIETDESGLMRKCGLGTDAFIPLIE
Sequence of Falcipain-3 (Q8IIL0 243-492): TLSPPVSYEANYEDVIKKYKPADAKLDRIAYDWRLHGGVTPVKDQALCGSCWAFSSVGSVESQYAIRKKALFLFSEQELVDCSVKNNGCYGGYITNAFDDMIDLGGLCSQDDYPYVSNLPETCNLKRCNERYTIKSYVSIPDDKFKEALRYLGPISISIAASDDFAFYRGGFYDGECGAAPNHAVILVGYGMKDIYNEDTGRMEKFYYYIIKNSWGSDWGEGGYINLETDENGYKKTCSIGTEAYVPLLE

SMILES	IC50 [1]	IC50 [2]	IC50 [3]	IC50 ([2]; parasitic recombinant enzyme, H-D-VLR-AFC substrate, pH 5.5, endpoint read, read-out: Falcipain-2 IC50)
CC1CCC(N(NC(=O)c2ccc(CN3CCN(C)CC3)cc2)c2nc(C#N)ncc2Br)C1 (mixture of isomers) [Example 26, N′-(5-bromo-2-cyano-4-pyrimidinyl)-N′-(3-methylcyclopentyl)-4-[(4-methyl-1-piperazinyl)methyl]benzohydrazide trifluoroacetate]	15 to 150 nM	< 1 nM		
C[C@@H]1CCC[C@H]1N(NC(=O)c1ccc(F)cc1)c1nc(C#N)ncc1Br (racemic) [Example 43, N′-(5-bromo-2-cyano-4-pyrimidinyl)-4-fluoro-N′-[(1R,2R+1S,2S))-2-methylcyclopentyl]benzohydrazide trifluoroacetate]	2.5 to 15 nM	< 1 nM	< 17 nM	
CN1CCN(Cc2ccc(C(=O)NN(CC(C)(C)C)c3nc(C#N)ncc3Br)cc2)CC1 [Comparative Example 39, N′-(5-bromo-2-cyano-4-pyrimidinyl)-N′-(2,2-dimethylpropyl)-4-[(4-methyl-1-piperazinyl)methyl]benzohydrazide trifluoroacetate, reference compound]	150 to 250 nM	15 to 150 nM		
C[C@H]1CCC[C@H]1N(NC(=O)c1ccc(CN2CCN(C)CC2)cc1)c1nc(C#N)ncc1Br [Example 2, N′-(5-bromo-2-cyano-4-pyrimidinyl)-N′-[(1 R,2S+1S,2R)-2-methylcyclopentyl]-4-[(4-methyl-1-piperazinyl)methyl]benzohydrazide trifluoroacetate]	15 to 150 nM	1 to 2.5 nM	< 17 nM	
C[C@@H]1CCC[C@H]1N(NC(=O)c1ccc(CN2CCN(C)CC2)cc1)c1nc(C#N)ncc1Br [Example 3, N′-(5-bromo-2-cyano-4-pyrimidinyl)-N′-[(1R,2R+1S,2S)-2-methylcyclopentyl]-4-[(4-methyl-1-piperazinyl)methyl]benzohydrazide trifluoroacetate]	2.5 to 15 nM	< 1 nM	< 1.5 nM	
N#Cc1ncc(Br)c(N(NC(=O)c2ccc(CN3CCC(N4CCOCC4)CC3)cc2)C2CCCC2)n1 [Example 6, N′-(5-bromo-2-cyano-4-pyrimidinyl)-N′-cyclopentyl-4-{([4-(4-morpholinyl)-1-piperidinyl]methyl}benzohydrazide trifluoroacetate]	2.5 to 15 nM	< 1 nM	< 1.5 nM	
CN1CCC(CN2CCN(Cc3ccc(C(=O)NN(c4nc(C#N)ncc4Br)C4CCCC4)cc3)CC2)CC1 [Example 7, N′-(5-bromo-2-cyano-4-pyrimidinyl)-N′-cyclopentyl-4-({4-[(1-methyl-4-piperidinyl)methyl]-1-piperazinyl}methyl)benzohydrazide trifluoroacetate]	2.5 to 15 nM	< 1 nM	< 1.5 nM	
CN1CCCC(CN2CCN(Cc3ccc(C(=O)NN(c4nc(C#N)ncc4Br)C4CCCC4)cc3)CC2)C1 (centres unmarked) [Example 8, N′-(5-bromo-2-cyano-4-pyrimidinyl)-N′-cyclopentyl-4-({4-[(1-methyl-3-piperidinyl)methyl]-1-piperazinyl}methyl)benzohydrazide trifluoroacetate]	2.5 to 15 nM	< 1 nM	< 1.5 nM	
CN1CCN(C(=O)C2CCN(Cc3ccc(C(=O)NN(c4nc(C#N)ncc4Br)C4CCCC4)cc3)CC2)CC1 [Example 9, N′-(5-bromo-2-cyano-4-pyrimidinyl)-N′-cyclopentyl-4-({4-[(4-methyl-1-piperazinyl)carbonyl]-1-piperidinyl}methyl)benzohydrazide trifluoroacetate]	2.5 to 15 nM	< 1 nM	< 1.5 nM	
N#Cc1ncc(Br)c(N(NC(=O)c2cccc(CN3CCC(N4CCOCC4)CC3)c2)C2CCCC2)n1 [Example 13, N′-(5-bromo-2-cyano-4-pyrimidinyl)-N′-cyclopentyl-3-{[4-(4-morpholinyl)-1-piperidinyl]methyl}benzohydrazide trifluoroacetate]	2.5 to 15 nM	< 1 nM		
CN1CCN(Cc2ccc(C(=O)NN(c3nc(C#N)ncc3Br)C3CCOCC3)cc2)CC1 [Example 42, N′-(5-bromo-2-cyano-4-pyrimidinyl)-4-[(4-methyl-1-piperazinyl)methyl]-N′-(tetrahydro-2H-pyran-4-yl)benzohydrazide trifluoroacetate]	15 to 150 nM			< 1 nM
CN1CCN(C2CCN(Cc3ccc(C(=O)NN(c4nc(C#N)ncc4Br)C4CCN(C(=O)OCc5ccccc5)CC4)cc3)CC2)CC1 [Example 48, Phenylmethyl 4-{1-(5-bromo-2-cyano-4-pyrimidinyl)-2-[(4-{[4-(4-methyl-1-piperazinyl)-1-piperidinyl]methyl}phenyl)carbonyl]hydrazino}-1-piperidinecarboxylate triflouroacetate]	2.5 to 15 nM	1 to 2.5 nM		
CN(CCO)Cc1ccc(C(=O)NN(c2nc(C#N)ncc2Cl)C2CCCC2)cc1 [Example 58, N′-(5-chloro-2-cyano-4-pyrimidinyl)-N′-cyclopentyl-4-{[(2-hydroxyethyl)(methyl)amino]methyl}benzohydrazide trifluoroacetate]	1 to 2.5 nM	< 1 nM		
CN1CCN(Cc2ccc(C(=O)NN(c3nc(C#N)ncc3Cl)C3CCOCC3)cc2)CC1 [Example 67, N′-(5-chloro-2-cyano-4-pyrimidinyl)-4-[(4-methyl-1-piperazinyl)methyl]-N′-(tetrahydro-2H-pyran-4-yl)benzohydrazide trifluoroacetate]	2.5 to 15 nM	< 1 nM		
CCN(Cc1ccc(C(=O)NN(c2nc(C#N)ncc2Cl)C2CCCC2)cc1)C(C)C [Example 68, N′-(5-chloro-2-cyano-4-pyrimidinyl)-N′-cyclopentyl-4-{[ethyl(1-methylethyl)amino]methyl}benzohydrazide trifluoroacetate]	2.5 to 15 nM	< 1 nM		
CN(Cc1ccc(C(=O)NN(c2nc(C#N)ncc2Cl)C2CCCC2)cc1)C(C)(C)C [Example 73, N′-(5-chloro-2-cyano-4-pyrimidinyl)-N′-cyclopentyl-4-{[(1,1-dimethylethyl)(methyl)amino]methyl}benzohydrazide trifluoroacetate]	2.5 to 15 nM	< 1 nM		
CCN(C)Cc1ccc(C(=O)NN(c2nc(C#N)ncc2Cl)C2CCCC2)cc1 [Example 74, N′-(5-chloro-2-cyano-4-pyrimidinyl)-N′-cyclopentyl-4-{[ethyl(methyl)amino]methyl}benzohydrazide trifluoroacetate]	15 to 150 nM	< 1 nM		
CC(C)N(Cc1ccc(C(=O)NN(c2nc(C#N)ncc2Cl)C2CCCC2)cc1)C1CCCCC1 [Example 75, N′-(5-chloro-2-cyano-4-pyrimidinyl)-4-{[cyclohexyl(1-methylethyl)amino]methyl}-N′-cyclopentylbenzohydrazide trifluoroacetate]	2.5 to 15 nM	< 1 nM		
CN(Cc1ccc(C(=O)NN(c2nc(C#N)ncc2Cl)C2CCCC2)cc1)CC(O)CO (centres unmarked) [Example 76, N′-(5-chloro-2-cyano-4-pyrimidinyl)-N′-cyclopentyl-4-{[(2,3-dihydroxypropyl)(methyl)amino]methyl}benzohydrazide trifluoroacetate]	2.5 to 15 nM	< 1 nM		
CN1CCN(c2cccc(C(=O)NN(c3nc(C#N)ncc3Cl)C3CCCC3)n2)CC1 [Example 78, N′-(5-chloro-2-cyano-4-pyrimidinyl)-N′-cyclopentyl-6-(4-methyl-1-piperazinyl)-2-pyridinecarbohydrazide trifluoroacetate]	15 to 150 nM	< 1 nM		
